Results reported in US10039825B2, “Combination therapy with CD4 lymphocyte depletion and MTOR inhibitors” (Cedars-Sinai Medical Center, priority 2010, dated 2018).

Assays:
[1] = system: RENCA tumor cells; test: RENCA tumor re-challenge after treatment (antitumor immune memory); format: in vivo, Balb/c mice; conditions: re-challenged with 2×10^5 RENCA cells on day 47; tumor size 11 and 18 days after; FIG. 4
Procedure: Ten days after subcutaneous implantation of 2×10^5 tumor cells, Balb/c mice were treated with temsirolimus (30 ug/mouse daily on days 14 to 34, intraperitoneally) or temsirolimus plus CD4 depleting antibody (intraperitoneal injection of 200 μg of GK1.5 mAb, administered at day 6 and 10). Mice were re-challenged with 2×10^5 RENCA tumor cells on day 47. Naïve mouse group was also challenged with RENCA and served as a control. Tumor size was measured 11 and 18 days after the re-challenge. […] Since the mice were not being actively treated at the time of tumor re-challenge, direct antitumor effects of the therapy cannot account for the effects on tumor growth.

[2] = system: CD4+FoxP3+ lymphocytes; test: in vivo effect on CD4+FoxP3+ lymphocytes (flow cytometry); set-up: species or system B6 mice; conditions: treated daily for 24 days; FoxP3 staining gated on CD4; FIG. 1B
Procedure: Further, in vivo effect of temsirolimus on CD4+FoxP3+ lymphocytes was assessed. B6 mice (5 mice per group) were treated daily with temsirolimus for 24 days, 2 doses of vaccine (complex of hsp110 and gp100), or both. FoxP3 staining was quantified with flow cytometry while gating on CD4. […] Representative results are shown from at least 2 independent experiments.

[3] = system: C57 BL/6 or Pmel-1 mouse lymph node lymphocytes; test: [3H] thymidine incorporation assay of stimulated lymph node lymphocytes; format: cell-based; conditions: lymphocytes stimulated with anti-CD3 and anti-CD28 mAb or gp100 peptide, 72 hours; FIG. 1A
Procedure: As has been well established, mTOR inhibitors have immune suppressing activity. For the [3H] thymidine incorporation assay, lymph nodes were harvested from naïve C57 BL/6 or Pmel-1 mouse, 3×10^5 cells/well were cultured in 96-well plates and stimulated, with or without mTOR inhibitors, for 72 hours. C57 BL/6 lymphocytes were stimulated with anti-CD3 and anti-CD28 mAb, and Pmel-1 lymphocytes were stimulated with […]. DNA synthesis was determined by incubation for 16 h with 1 μCi [3H]thymidine (Amersham Biosciences, Piscataway, N.J., USA).

CO[C@H]1C[C@@H]2CC[C@@H](C)[C@@](O)(O2)C(=O)C(=O)N2CCCC[C@H]2C(=O)O[C@H]([C@H](C)C[C@@H]2CC[C@@H](OC(=O)C(C)(CO)CO)[C@H](OC)C2)CC(=O)[C@H](C)/C=C(\C)[C@@H](O)[C@@H](OC)C(=O)[C@H](C)C[C@H](C)/C=C/C=C/C=C/1C [temsirolimus, Temsirolimus]
tumor growth after re-challenge [1]: grew at the same rate | Foxp3 positive lymphocytes (regulatory T cells) [2]: increased | immune suppressing activity, DNA synthesis by [3H]thymidine incorporation [3]: nearly identical activities
